Data: patent publication US20070275382A1, “Biomarkers for the Efficacy of Somatostatin Analogue Treatment” (priority 2003, published 2007)
Values joined by “and” are separate entries in the source; they are usually repeats but may differ in a detail not shown here. Equal values may be shown once. *1 amine or outer side, *2 acyl side, *3 side chain or, on linkers, in order; H or OH if unused. Where a SMILES comes first, the peptide text is derived from it. Side-chain parts run from the residue outwards. [ ]: non-standard residue; d: D form. The star is where a group is joined. Ethylenediamine = C(CN[*:2])N[*:1]; Hyp = O=C(O)[CH]1C[CH](O)CN1; Phg = N[CH](C(=O)O)c1ccccc1; CO = O=C([*:1])[*:2]; Bn = c1ccc(C*)cc1

Test system: Pituitary gland
Assay: Microarray gene expression profiling (HG-U95A), pituitary
Assay type: in vivo, cynomolgus monkeys
Protocol: Origin of tissue and processing. Male and female cynomolgus monkeys received subcutaneously pasireotide (100 μg/animal/day) or the vehicle for 14 days. On day 15, all animals were sacrificed and tissues for RNA extraction were immediately snap-frozen and kept at −80° C. until processing.
RNA expression profiling was conducted by means of the HG-U95A gene expression probe array (Affymetrix; Santa Clara, Calif. USA), containing more than 12,600 probe sets interrogating primarily full-length human genes and also some control probe sets. The experiment was conducted according to the recommendations of the manufacturer. Briefly, total RNA was obtained by acid guanidinium thiocyanate-phenol-chloroform extraction (Trizol®, Invitrogen Life Technologies, San Diego, Calif. USA) from each frozen tissue section. The total RNA was then purified on an affinity resin (Rneasy®, Qiagen) and quantified. Double stranded cDNA was synthesized with a starting amount of approximately 5 μg full-length total RNA using the Superscript® Choice System (Invitrogen Life Technologies, Carlsbad, Calif. USA) in the presence of a T7-(dT)24 DNA oligonucleotide primer. Following synthesis, the cDNA was purified by phenol/chloroform/isoamyl alcohol extraction and ethanol precipitation. The purified cDNA was then transcribed in vitro using the BioArray® High Yield RNA Transcript Labeling Kit (ENZO, Farmingdale, N.Y. USA) in the presence of biotinylated ribonucleotides form biotin labelled cRNA. The labelled cRNA was then purified on an affinity resin (Rneasy®, Qiagen), quantified and fragmented. An amount of approximately 10 μg labelled cRNA was hybridized for 16 hours at 45° C. to an expression probe array. The array was then washed and stained twice with streptavidin-phycoerythrin (Molecular Probes,) using the GeneChip® Fluidics Workstation 400 (Affymetrix, Santa Clara, Calif. USA). The array was then scanned twice using a confocal laser scanner (GeneArray® Scanner, Agilent, Palo Alto, Calif. USA) resulting in one scanned image. This resulting “.dat-file” was processed using the MAS4 program (Affymetrix) into a “.cel-file”. The “.cel file” was captured and loaded into the Affymetrix GeneChip® Laboratory Information Management System (LIMS). The LIMS database is connected to a UNIX Sun Solaris server through a network filing system that allows for the average intensities for all probes cells (CEL file) to be downloaded into an Oracle database (NPGN). Raw data was converted to expression levels using a “target intensity” of 150. The data were evaluated for quality control and loaded in the GeneSpring® software 4.2.4 (Silicon Genetics, Calif. USA) for analysis.
On the human Affymetrix HGU95Av2 chip, probe sets for individual genes contain 20 oligonucleotide pairs, each composed of a “perfect match” 25-mer and a “mismatch” 25-mer differing from the “perfect” match oligonucleotide at a single base. After probe labelling, hybridization, and laser scanning, the expression level was estimated by averaging the differences in signal intensity measured by oligonucleotide pairs of a given probe (AvgDiff value). The fold changes and directions were calculated for selected genes, from the differences of the AvgDiff values between controls and treated.
To identify genes that were impacted by pasireotide, the dataset was initially filtered to exclude in a first wave of analysis, genes whose values were systematically in the lower expression ranges where the experimental noise is high (at least 80 in a number of experiments corresponding to the smallest number of replicas of any experimental point). In a second round of selection a threshold p-value of 0.05 (based on a t-test) identified differences between treated and control based on a two component error model (Global Error Model) and, whenever possible, with a stepdown correction for multi-hypothesis testing (Benjamini and Hochberg false discovery rate). […]

[1] = ↑ vs control, 100 μg/animal/day s.c., 14 days

NCCCCC1NC(=O)C(Cc2c[nH]c3ccccc23)NC(=O)C(c2ccccc2)NC(=O)C2CC(OC(=O)NCCN)CN2C(=O)C(Cc2ccccc2)NC(=O)C(Cc2ccc(OCc3ccccc3)cc2)NC1=O (stereo not drawn) [Pasireotide, cyclo[4-(NH2—C2H4—NH—CO—O)Pro-Phg-DTrp-Lys-Tyr(4-Bzl)-Phe]] (cyclo(F[Hyp]([CO-Ethylenediamine])[Phg]WKY(Bn)); configuration not given here)
ATPase, H+/K+ exchanging, α polypeptide expression level, AvgDiff (range) (0.1 mg/animal/14 day): 20 | ATPase, Na+/K+ transporting, α 2 (+) polypeptide expression level, AvgDiff (range) (0.1 mg/animal/14 day): 184 (69 to 325) | ATPase, Na+/K+ transporting, β 3 polypeptide expression level, AvgDiff (range) (0.1 mg/animal/14 day): 610 (335 to 949) | BCL2-antagonist of cell death expression level, AvgDiff (range) (0.1 mg/animal/14 day): 69 (42 to 89) | BCL2-associated athanogene expression level, AvgDiff (range) (0.1 mg/animal/14 day): 318 (235 to 409) | Bax gamma expression level, AvgDiff (range) (0.1 mg/animal/14 day): 326 (221 to 448) | Cdk inhibitor 2C (p18, inhibits CDK4) expression level, AvgDiff (range) (0.1 mg/animal/14 day): 184 (140 to 229) | Cdk inhibitor 2D (p19, inhibits CDK4) expression level, AvgDiff (range) (0.1 mg/animal/14 day): 99 (83 to 118) | Cell division cycle 25B expression level, AvgDiff (range) (0.1 mg/animal/14 day): 162 (134 to 187) | Core-binding factor, runt domain, α subunit 2; translocated to, 1; cyclin D-related expression level, AvgDiff (range) (0.1 mg/animal/14 day): 491 (251 to 677) | Cyclin D3 expression level, AvgDiff (range) (0.1 mg/animal/14 day): 338 (202 to 446) | Cyclin F expression level, AvgDiff (range) (0.1 mg/animal/14 day): 74 (48 to 132) | Dual specificity phosphatase 8 expression level, AvgDiff (range) (0.1 mg/animal/14 day): 170 (67 to 238) | Forkhead box O3A expression level, AvgDiff (range) (0.1 mg/animal/14 day): 257 (186 to 324) | GLUR 2, precursor expression level, AvgDiff (range) (0.1 mg/animal/14 day): 59 (20 to 177) | GR expression level, AvgDiff (range) (0.1 mg/animal/14 day): 109 (51 to 215) | IGF-2 expression level, AvgDiff (range) (0.1 mg/animal/14 day): 70 (20 to 150) | IGFBP, acid labile subunit expression level, AvgDiff (range) (0.1 mg/animal/14 day): 83 (20 to 110) | IP-4-phosphatase, type 1, isoform b expression level, AvgDiff (range) (0.1 mg/animal/14 day): 177 (107 to 232) | K+ channel, subfamily K, member 3 (TASK) expression level, AvgDiff (range) (0.1 mg/animal/14 day): 26 (20 to 43) | K+ voltage-gated channel, Shab-related subfamily, member 1 expression level, AvgDiff (range) (0.1 mg/animal/14 day): 22 (20 to 31) | MAPKKK5 expression level, AvgDiff (range) (0.1 mg/animal/14 day): 278 (221 to 351) | Neuroblastoma-amplified protein expression level, AvgDiff (range) (0.1 mg/animal/14 day): 237 (201 to 258) | PI transfer protein, β expression level, AvgDiff (range) (0.1 mg/animal/14 day): 42 (34 to 50) | PI-3-kinase, catalytic, α polypeptide expression level, AvgDiff (range) (0.1 mg/animal/14 day): 21 (20 to 24) | PI-3-kinase, catalytic, δ polypeptide expression level, AvgDiff (range) (0.1 mg/animal/14 day): 34 (20 to 67) | PKC inhibitor expression level, AvgDiff (range) (0.1 mg/animal/14 day): 3,333 (2,339 to 3,878) and 3,332 (2,339 to 3,878) | PLC, γ 1 (formerly subtype 148) expression level, AvgDiff (range) (0.1 mg/animal/14 day): 40 (20 to 63) | PP 1, regulatory (inhibitor) subunit 5 expression level, AvgDiff (range) (0.1 mg/animal/14 day): 75 (60 to 90) | PTP, receptor type, T expression level, AvgDiff (range) (0.1 mg/animal/14 day): 101 (48 to 129) | Phosphatase and tensin homolog (mutated in multiple advanced cancers 1) expression level, AvgDiff (range) (0.1 mg/animal/14 day): 36 (20 to 63) | Programmed cell death 6 expression level, AvgDiff (range) (0.1 mg/animal/14 day): 635 (513 to 747) | Putative Ca++ transporting ATPase expression level, AvgDiff (range) (0.1 mg/animal/14 day): 101 (84 to 112) | RAB 5C, member RAS oncogene family expression level, AvgDiff (range) (0.1 mg/animal/14 day): 162 (109 to 212) | Rab geranylgeranyltransferase, α subunit expression level, AvgDiff (range) (0.1 mg/animal/14 day): 104 (70 to 172) | Rab geranylgeranyltransferase, βsubunit expression level, AvgDiff (range) (0.1 mg/animal/14 day): 284 (246 to 374) | S-phase response (cyclin-related) expression level, AvgDiff (range) (0.1 mg/animal/14 day): 129 (111 to 148) | SHB adaptor protein (a Src homology 2 protein) expression level, AvgDiff (range) (0.1 mg/animal/14 day): 38 (20 to 55) | SSTR3 expression level, AvgDiff (range) (0.1 mg/animal/14 day): 57 (20 to 90) | ANP (atrial natriuretic peptide precursor B) transcript fold change [1]: ↑ x2 | ATP(GTP)-binding protein transcript fold change [1]: protein ↑ x1.5 | ATPase, Ca++ transporting cardiac muscle, slow twitch 2 transcript fold change [1]: ↑ x1.5 | ATPase, Na+/K+ transporting, α 2(+) polypeptide transcript fold change [1]: polypeptide ↑ x2.5 | ATPase, Na+/K+ transporting, β 3 polypeptide transcript fold change [1]: polypeptide ↑ x2.5 | Adrenomedullin transcript fold change [1]: Adrenomedullin ↑ x2.5 | BCL2-antagonist of cell death transcript fold change [1]: cell death ↑ x2 | BCL2-associated athanogene transcript fold change [1]: athanogene ↑ x2 | BCL2/adenovirus E1B 19 kD-interacting protein 3 transcript fold change [1]: 3 ↑ x1.5 | Bax γ transcript fold change [1]: Bax γ ↑ x1.5 | Brain cannabinoid receptor 1 transcript fold change [1]: receptor 1 ↑ x2 | Butyrate response factor 2 (EGF-response factor 2) transcript fold change [1]: factor 2) ↑ x3 | CC chemokines STCP-1 transcript fold change [1]: STCP-1 ↑ x1.5 | Calcium/calmodulin-dependent protein kinase I transcript fold change [1]: kinase I ↑ x2.5 | Cdki2C (p18, inhibits CDK4) transcript fold change [1]: CDK4) ↑ x2 | Cdki2D (p19, inhibits CDK4) transcript fold change [1]: CDK4) ↑ x1.5 | Cell division cycle 25B transcript fold change [1]: ↑ x5 | Core-binding factor, runt domain, α subunit 2; translocated to, 1; cyclin D-related transcript fold change [1]: cyclin D-related ↑ x3 | Cyclin D3 transcript fold change [1]: Cyclin D3 ↑ x2.5 | Forkhead box H1 transcript fold change [1]: Forkhead box H1↑ x2 | G protein-coupled receptor, family C, group 5, member B transcript fold change [1]: group 5, member B ↑ x2 | G-protein coupled receptor 9 transcript fold change [1]: receptor 9 ↑ x2.5 | GABA-B R 1, isoform a precursor transcript fold change [1]: ↑ x1.5
